Laboratory results published in ChEMBL document CHEMBL1124670, “1-(3-cyano-2,3-dideoxy-beta-D-erythro-pentofuranosyl)thymine (cyanothymidine): synthesis and antiviral evaluation against human immunodeficiency virus” (1989).
≈ marks a conversion by molar mass, not a printed value.

Key:
Type in all cases: functional, Homo sapiens
C8166 [1] = assay: Protection of C8166 cells against the cytopathic effect of HIV isolate CBL-1
ATH-8 cell line = assay: Protection of ATH8 cells against the cytopathic effect of HIV isolate […]
C8166 [2] = assay: Protection of C8166 cells against the cytopathic effect of HIV isolate RF
C8166 [3] = assay: Pprotection of C8166 cells against the cytopathic effect of HIV isolate RF

Cc1cn(C2C[C@@H](C#N)[C@@H](CO)O2)c(=O)[nH]c1=O (stereo partly drawn)
ED90 (C8166 [1]): >100 µg/mL
ED90 (ATH-8 cell line): >2.5 µg/mL
ED90 (C8166 [2]): >100 µg/mL

Cc1cn([C@H]2C=C[C@@H](CO)O2)c(=O)[nH]c1=O [STAVUDINE]
ED90 (C8166 [3]): 1 µg/mL (≈ 4.46 µM)
ED90 (ATH-8 cell line): <0.25 µg/mL

Cc1cn([C@H]2C[C@H](N=[N+]=[N-])[C@@H](CO)O2)c(=O)[nH]c1=O [ZIDOVUDINE]
ED90 (C8166 [3]): 1 µg/mL (≈ 3.74 µM)
ED90 (C8166 [1]): 0.1 µg/mL (≈ 0.374 µM)
ED90 (ATH-8 cell line): <0.25 µg/mL
